For orientation: melting point means the temperature of the solid-liquid transition.

Series [1] deals with Rats. Nature of the series: Experiment I: rats fed chow supplemented with compound for 6 days; plasma lipids, glucose, food intake. Format: in vivo. Particulars: 0.1% (w/w) in diet. As to the method: Rats (n=5 for each treatment group) were fed ad libitum on Purina chow for 6 days, the diet being supplemented with 0.1% (w/w) γ,γ′-methyl substituted α,ω-dioic acids of formula (II) (Ex. 1, Ex. 3, Ex. 4) in the diet. The biological effect in vivo was evaluated by following food intake, plasma triglycerides, plasma cholesterol and plasma glucose.

Series [2] concerns Rats. Nature of the series: Experiment II: rats fed chow supplemented with compound for 5 days; plasma triglycerides, apo C-III, insulin. The class given is in vivo. How it is done: (§1) Rats (n=5 for each treatment group) were fed ad libitum on purina chow for 5 days, the diet being supplemented with either γ,γ′-methyl substituted α,ω hexadecanedioic acid (formula (II). Ex. 3) or β,β′-methyl substituted α,ω-hexadecanedioic acid (U.S. Pat. No. 4,634,795) at a dosage of 0.09% (w/w) in the diet. The biological effect in vivo was evaluated by following plasma triglycerides, plasma apolipoprotein(apo)C-III, plasma insulin and the steady state concentrations (Css) of the respective drugs in plasma. Fold efficacy of the γ,γ′-substituted compound (Ex. 3) relative to the β,β′-substituted compound was calculated by normalizing the observed effect by the respective Css attained.

Series [3] concerns Rats. Nature of the series: Experiment III: conditions as in Experiment II; plasma lipids, apo C-III, glucose, insulin. Format: in vivo. As to the method:
as §1
Conditions as in Experiment II using α,α′-methyl-substituted α,ω-tetradecanedioic acid.
Fold efficacy represents the respective effect induced by the α,α′-substituted compound (Ex. 5) relative to that of the β,β′-substituted compound.

The mark [4] stands for this setting: observed effect normalized by respective Css, relative to β,β′-substituted compound.
Where [5] appears, read: rats, 0.09% (w/w) in diet, 5 days.
Where [6] appears, read: effect of α,α′-substituted compound relative to β,β′-substituted compound.
Setting [7] is: rats, conditions as in Experiment II.

Molecule `CC(C)(CCCCCCCCCCC(C)(C)CCC(=O)O)CCC(=O)O` [Ex. 4, 4,4,15,15-Tetramethyloctadecanedioic acid] came in with a melting point of 71 to 72 °C. Besides, in the series on Rats [1], the Food intake was found to be 19.1 ± 1.2 g/day, the Plasma cholesterol was found to be 56.8 ± 10.8 mg %, the Plasma glucose was found to be 139.0 ± 9.0 mg % and the Plasma triglycerides worked out at 29.3 ± 10.4 mg %.
Regarding `CC(C)(CCCCCCCCC(C)(C)CCC(=O)O)CCC(=O)O` [Ex. 3, 4,4,13,13-Tetramethylhexadecanedioic Acid], in the series with Rats [2] (setting [4]), the “Fold efficacy (γ,γ/β,β), plasma apo C-III” value is 7.7; the “Fold efficacy (γ,γ/β,β), plasma insulin” value amounted to 15.2; the “Fold efficacy (γ,γ/β,β), plasma triglycerides” value is listed as 8.2. In addition, in the series with Rats [2] (setting [5]), the “Plasma apo C-III” value amounted to 12.0 ± 4.6 mg %, the Plasma insulin turned out to be 16 ± 6.1 µU/mL and the Plasma triglycerides is recorded as 19.9 ± 7.4 mg %. In the series on Rats [1], the Food intake is 19.3 ± 1.1 g/day, the Plasma cholesterol was 62.4 ± 13.3 mg %, the Plasma glucose worked out at 138.8 ± 2.7 mg % and the Plasma triglycerides worked out at 28.8 ± 7.4 mg %.
With `CC(C)(CCCCCCCCCCCCC(C)(C)C(=O)O)C(=O)O` [Ex. 6, 2,2,15,15-Tetramethylhexadecanedioic Acid], in the series on Rats [3] (setting [6]), the “Fold efficacy (α,α/β,β), plasma apo C-III” value is listed as 3.7; the “Fold efficacy (α,α/β,β), plasma cholesterol” value is 1.2; the “Fold efficacy (α,α/β,β), plasma glucose” value is given as 1.1; the “Fold efficacy (α,α/β,β), plasma insulin” value was determined as 1.0. The “Fold efficacy (α,α/β,β), plasma triglycerides” value in the series on Rats [3] (setting [6]) amounted to 1.78. In addition, in the series with Rats [3] (setting [7]), the “Plasma apo C-III” value worked out at 17 ± 14 mg %, the Plasma cholesterol stood at 69.5 ± 9.7 mg %, the Plasma glucose worked out at 104 ± 4 mg % and the Plasma insulin is 24.2 ± 7.3 µU/mL. This molecule also returned a Plasma triglycerides with Rats [3] (rats, conditions as in Experiment II (0.09% w/w in diet, 5 days)) of 44.5 ± 14.0 mg %.
`CC(C)(CCCCCCC(C)(C)CCC(=O)O)CCC(=O)O` [Ex. 1, 4,4,11,11-Tetramethyltetradecanedioic Acid]: the melting point was 88 to 89 °C. For the same molecule, in the series on Rats [1], the Food intake turned out to be 18.6 ± 2.1 g/day, the Plasma cholesterol turned out to be 64.1 ± 12.0 mg %, the Plasma glucose is 127.8 ± 6.6 mg % and the Plasma triglycerides was 24.8 ± 3.9 mg %.

These data come from patent US6800772B2, “Carboxylic acids and derivatives thereof and pharmaceutical compositions containing them” (Yissum Research Development Company of the Hebrew …, priority 1997, dated 2004).
